Laboratory results as given in the supplement of paper PMC11061612.

How the values were obtained:
Experiment in all cases: combination Emax (second highest fraction inhibited in the dose matrix, 72 h); higher = more inhibition; extreme values may be limits of the assay
DK-MG (Glioblastoma) = system: DK-MG (Glioblastoma)
Method in brief: (§1)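 After 24 hours at 37°C and 5% CO2 in 1536-well plates, cells in DMEM/F12 or RPMI plus 10% FBS received two-drug dose matrices for 72 hours. Viability came from CellTiter-Glo 2.0 luminescence and was scaled as inhibition, anchored at 0 by vehicle wells and at 1 by blank wells. Combination Emax is taken as the second-highest inhibition in the matrix, and Bliss excess as the observed combination effect less EA + EB − EA·EB, with EA and EB the single-agent effects.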

[1] = system: NCI-H1435 (Non-Small Cell Lung Carcinoma)
Method in brief: as §1

MG-63 (Osteosarcoma) = system: MG-63 (Osteosarcoma)
Method in brief: as §1

C32 (Melanoma) = system: C32 (Melanoma)
Method in brief: as §1

[2] = system: HT-1197 (Bladder Carcinoma)
Method in brief: as §1

[3] = system: HT-3 (Cervical Carcinoma)
Method in brief: as §1

[4] = system: MRK-nu-1 (Breast Carcinoma)
Method in brief: as §1

[5] = system: BT-474 (Breast Carcinoma)
Method in brief: as §1

[6] = system: RPMI-8402 (T-Lymphoblastic Leukemia)
Method in brief: as §1

[7] = system: SBC-5 (Small Cell Lung Carcinoma)
Method in brief: as §1

[8] = system: SCC90 (Head and Neck Carcinoma)
Method in brief: as §1

[9] = system: L-363 (Plasma Cell Myeloma)
Method in brief: as §1

[10] = system: RS4-11 (B-Lymphoblastic Leukemia)
Method in brief: as §1

[11] = system: COR-L105 (Lung Adenocarcinoma)
Method in brief: as §1

[12] = system: TOV-21G (Ovarian Carcinoma)
Method in brief: as §1

[13] = system: NCI-H835 (Other Solid Carcinomas)
Method in brief: as §1

[14] = system: C2BBe1 (Colorectal Carcinoma)
Method in brief: as §1

[15] = system: NCI-H2170 (Squamous Cell Lung Carcinoma)
Method in brief: as §1

[16] = system: NCI-H2009 (Lung Adenocarcinoma)
Method in brief: as §1

[17] = system: MDA-MB-175-VII (Breast Carcinoma)
Method in brief: as §1

Row | SMILES | combination Emax (DK-MG (Glioblastoma)) | combination Emax [1] | combination Emax (MG-63 (Osteosarcoma)) | combination Emax (C32 (Melanoma)) | combination Emax [2] | combination Emax [3] | combination Emax [4] | combination Emax [5] | combination Emax [6] | combination Emax [7] | combination Emax [8] | combination Emax [9] | combination Emax [10] | combination Emax [11] | combination Emax [12] | combination Emax [13] | combination Emax [14] | combination Emax [15] | combination Emax [16] | combination Emax [17]
1 | Cc1cc2ncnn2cc1Nc1ncc2c(n1)n(C1CCOCC1)c(=O)n2C [AZD7648] + CCN(CCO)CCCOc1ccc2c(Nc3cc(CC(=O)Nc4cccc(F)c4)[nH]n3)ncnc2c1 [AZD2811] (first compound max 10 µM, 7x7, partner max 1 µM) | 0.273 | 0.288 | 0.39 | 0.279 | 0.291 | 0.231 | 0.824 | 0.237 | 0.886 | 0.39 | 0.452 | 0.413 | 0.968 | 0.31 | 0.327 | 0.36 | 0.196 | 0.696 | 0.335 | 0.323
2 | Cc1cc2ncnn2cc1Nc1ncc2c(n1)n(C1CCOCC1)c(=O)n2C [AZD7648] + CN(C)CCCOc1ccc(-c2ccc3ncc4c(c3c2)n(C2CCOCC2)c(=O)n4C)cn1 [AZD0156] (first compound max 10 µM, 7x7, partner max 1 µM) | 0.27 | 0.226 | 0.331 | 0.195 | 0.194 | 0.143 | 0.515 | 0.234 | 0.382 | 0.224 | 0.353 | 0.393 | 0.246 | 0.339 | 0.169 | 0.36 | 0.211 | 0.335 | 0.14 | 0.288
3 | Cc1cc2ncnn2cc1Nc1ncc2c(n1)n(C1CCOCC1)c(=O)n2C [AZD7648] + C[C@@H]1COCCN1C2=NC(=NC(=C2)C3(CC3)[S@](=N)(=O)C)C4=C5C=CNC5=NC=C4 [AZD6738] (first compound max 10 µM, 7x7, partner max 10 µM) | 0.273 | 0.217 | 0.503 | 0.649 | 0.419 | 0.536 | 0.633 | 0.24 | 0.988 | 0.481 | 0.325 | 0.849 | 0.871 | 0.531 | 0.579 | 0.389 | 0.311 | 0.657 | 0.339 | 0.341
4 | Cc1nc(Nc2ncc(C(=O)Nc3c(C)cccc3Cl)s2)cc(N2CCN(CCO)CC2)n1 [Dasatinib] + CC(=O)Nc1cccc(-n2c(=O)n(C3CC3)c(=O)c3c(Nc4ccc(I)cc4F)n(C)c(=O)c(C)c32)c1 [Trametinib] (first compound max 2 µM, 7x7, partner max 1 µM) | 0.895 | 0.42 | 0.734 | 0.984 | 0.554 | 0.157 | 0.254 | 0.0101 | 0.307 | 0.409 | 0.846 | 0.146 | 0.236 | 0.806 | 0.8 | 0 | 0.692 | 0.537 | 0.916 | 0.513
5 | COc1cc2ncnc(Nc3ccc(F)c(Cl)c3)c2cc1OCCCN1CCOCC1 [Gefitinib] + CC(C)n1c(=O)n(C)c2cnc3cc(F)c(-c4ccc(OCCCN5CCCCC5)nc4)cc3c21 [AZD1390] (first compound max 10 µM, 7x7, partner max 0.3 µM) | 0.248 | 0.114 | 0.202 | 0.114 | 0.0774 | 0.0187 | 0.443 | 0.485 | 0.56 | 0.0706 | 0.699 | 0.148 | 0.168 | 0.619 | 0.275 | 0.144 | 0.288 | 0.784 | 0.119 | 0.93
6 | COc1cc2c(cc1OCCCCCOc1cc3c(cc1OC)C(=O)N1C=C(C)C[C@H]1C=N3)N=C[C@@H]1CC(C)=CN1C2=O [SG3199] + O=C(c1cc(Cc2n[nH]c(=O)c3ccccc23)ccc1F)N1CCN(C(=O)C2CC2)CC1 [Olaparib] (first compound max 0.001 µM, 7x7, partner max 10 µM) | 0.099 | 0.107 | 0.198 | 0.0494 | 0.166 | 0.0808 | 0.223 | 0.049 | 0.435 | 0.0814 | 0.173 | 0.0669 | 0.591 | 0.0843 | 0.195 | 0.169 | 0.0966 | 0.228 | 0.144 | 0.0059
7 | C[C@@H](c1ccc2nccn2c1)n1nnc2ncc(-c3cnn(C)c3)nc21 [Savolitinib] + CC1(C)CCC(CN2CCN(c3ccc(C(=O)NS(=O)(=O)c4ccc(NCC5CCOCC5)c([N+](=O)[O-])c4)c(Oc4cnc5[nH]ccc5c4)c3)CC2)=C(c2ccc(Cl)cc2)C1 [Venetoclax] (first compound max 1 µM, 7x7, partner max 1 µM) | 0.352 | 0.177 | 0.238 | 0.171 | 0.173 | 0.137 | 0.449 | 0.0943 | 0.183 | 0.33 | 0.381 | 0.0979 | 1 | 0.186 | 0.116 | 0.148 | 0.0814 | 0.162 | 0.204 | 0.2
8 | C[C@@H](c1ccc2nccn2c1)n1nnc2ncc(-c3cnn(C)c3)nc21 [Savolitinib] + Cc1c2c(nn1C)CSCc1cc(n(C)n1)CSc1cc(c3ccccc3c1)OCCCc1c(C(=O)O)n(C)c3c-2c(Cl)ccc13 [AZD5991] (first compound max 1 µM, 7x7, partner max 1 µM) | 0.417 | 0.122 | 0.257 | 0.184 | 0.195 | 0.207 | 1 | 0.628 | 0.502 | 0.538 | 0.454 | 0.992 | 0.435 | 0.165 | 0.174 | 0.177 | 0.134 | 0.211 | 0.217 | 0.185
